Values of other authors in patent US6423697B1, “Intraoral topical anti-inflammatory treatment for relief of migraine, tension-type headache, post-traumatic headache, facial pain, and cervical-muscle spasm” (priority 1999, dated 2002).

How the values were obtained:
[1] = oral medication

plasma half-life (in vivo) [h]	time peak plasma levels are maintained (oral administration) [h]	time to peak plasma levels (oral administration) [h]	Molecule	effectiveness for headache [1]
4.7 to 9	4 to 6	1 to 2	CC(=O)Oc1ccccc1C(=O)O [Aspirin, salicylic acetate]	mildly effective
–	–	1 to 2	CC(C)Cc1ccc(C(C)C(=O)O)cc1 (centres unmarked) [Ibuprofen, 2-(p-Isobutylphenyl) propionic acid]	mildly effective
–	–	0.5 to 2	2-(3benzoxyphenyl)-propionic acid [Ketoprofen]	–
–	–	–	COc1ccc2cc([C@H](C)C(=O)O)ccc2c1 [Naproxen, 6-methoxy methyl-2-naphtalene acetic acid]	mildly effective
